In data set [1] the target is purine nucleoside phosphorylase (Homo sapiens, UniProt P00491). To be noted: J. C. Sircar et al. J. Med. Chem. 1986, 29, 1804-1806; cited from earlier work.
Another data set concerns HIV-1 strain IIIB. The data set can be described thus: Inhibition of replication of HIV-1 (IIIB strain) in MT-4 cells, MTT assay. To be noted: MT-4 cells, MTT assay, five days after infection, 50% protection from cytopathic effect, read-out: EC50 (μM) HIV-1 (IIIB). It counts as cell-based. On the technique in general: Tetrazolium dyes change colour on reduction, which living cells bring about.

Another data set concerns hRV-29. The data set can be described thus: Rhinovirus type 29 antiviral assay in Hela Rh cells, MTS readout. It counts as cell-based. To be noted: Human rhinovirus sp., HRV29, HeLa Rh, methodology of example 451; read-out: EC50 (μg/ml) hRV-29.
The subject of another data set is hRV-70. The data set can be described thus: Rhinovirus type 70 antiviral assay in Hela Rh cells, MTS readout. It counts as cell-based, Human rhinovirus.
For another data set, the system named is HIV-2 strain (ROD). The data set can be described thus: Inhibition of replication of HIV-2 (ROD strain) in MT-4 cells, MTT assay. To be noted: Human immunodeficiency virus 2, MT4, 120 h; MT-4 cells, MTT assay, five days after infection, 50% protection from cytopathic effect; read-out: EC50 (μM) HIV-2 (ROD). It is filed as cell-based.
For another data set, the system named is poliovirus (PV type 1). The data set can be described thus: microbe, parasite or virus in culture. It is filed as cell-based. To be noted: Enterovirus C, read-out: PV-1 EC50.
A further data set deals with hRV-15. The data set can be described thus: Rhinovirus type 15 antiviral assay in Hela Rh cells, MTS readout. It is filed as cell-based, Human rhinovirus.
Data set [2] concerns Enteric Cytopathic Human Orphan virus (ECHO11). The data set can be described thus: organism not typed. It counts as cell-based. To be noted: BGM, read-out: EC50 (ECHO virus).
The nature of data set [3]: Cytotoxicity reported with the coxsackievirus (CVA9) assay. To be noted: African green monkey.
A further data set deals with hRV-14. The data set can be described thus: Rhinovirus type 14 antiviral assay in Hela Rh cells, MTS readout. It counts as cell-based, Human rhinovirus.
The test system of a further data set is hRV-41. The data set can be described thus: Rhinovirus type 41 antiviral assay in Hela Rh cells, MTS readout. It is filed as cell-based, Human rhinovirus.
In a further data set the test system is hRV-59. The data set can be described thus: Rhinovirus type 59 antiviral assay in Hela Rh cells, MTS readout. It counts as cell-based. To be noted: Human rhinovirus sp., HRV59, HeLa Rh; methodology of example 451; read-out: EC50 (μg/ml) hRV-59.
The next data set deals with hRV-89. The data set can be described thus: Rhinovirus type 89 antiviral assay in Hela Rh cells, MTS readout. It is filed as cell-based, Human rhinovirus. To be noted: Rhinovirus A, HRV89, HeLa Rh; methodology of example 451; read-out: EC50 (μg/ml) hRV-89.
A short description of data set [4]: in vitro. To be noted: African green monkey.
The test system of a further data set is hRV-2. The data set can be described thus: Rhinovirus type 2 antiviral assay in Hela Rh cells, MTS readout. It is filed as cell-based, Human rhinovirus.
The next data set concerns hRV-72. The data set can be described thus: Rhinovirus type 72 antiviral assay in Hela Rh cells, MTS readout. It counts as cell-based, Human rhinovirus.
The test system of another data set is hRV-39. The data set can be described thus: Rhinovirus type 39 antiviral assay in Hela Rh cells, MTS readout. It is filed as cell-based, Human rhinovirus.
The subject of a further data set is coxsackie virus (CVA9). The data set can be described thus: Coxsackievirus (CVA9) antiviral assay in BGM cells. To be noted: Enterovirus B. It is filed as cell-based.
The nature of data set [5]: in vitro. To be noted: human, PV CC50.
Another data set relates to hRV-9. The data set can be described thus: Rhinovirus type 9 antiviral assay in Hela Rh cells, MTS readout. It is filed as cell-based, Human rhinovirus.
A further data set relates to poliovirus (PV type 3). The data set can be described thus: microbe, parasite or virus in culture. It counts as cell-based. To be noted: Enterovirus C, read-out: PV-3 EC50.
Another data set relates to enterovirus (EV71). The data set can be described thus: Enterovirus (EV71) antiviral assay in RD cells. It counts as cell-based.
The test system of another data set is hRV-86. The data set can be described thus: Rhinovirus type 86 antiviral assay in Hela Rh cells, MTS readout. It counts as cell-based, Human rhinovirus.
A short description of data set [6]: in vitro. To be noted: African green monkey, PV CC50.
Data set [7] in a line: in vitro. To be noted: human.
Another data set concerns hRV-45. The data set can be described thus: Rhinovirus type 45 antiviral assay in Hela Rh cells, MTS readout. It is filed as cell-based, Human rhinovirus.
Data set [8] in a line: Cytotoxicity in RD cells (enterovirus methodology). To be noted: human.
A further data set has as its system poliovirus (PV type 2). The data set can be described thus: microbe, parasite or virus in culture. It counts as cell-based. To be noted: Enterovirus C, read-out: PV-2 EC50.
For a further data set, the system named is hRV-63. The data set can be described thus: Rhinovirus type 63 antiviral assay in Hela Rh cells, MTS readout. It counts as cell-based, Human rhinovirus.
Data set [9] is described as follows: Cytostatic/cytotoxic effect in Hela Rh cells (rhinovirus methodology, MTS). To be noted: human, CC50 (μg/ml), rhinovirus methodology of example 451.
In the next data set the test system is hRV-42. The data set can be described thus: Rhinovirus type 42 antiviral assay in Hela Rh cells, MTS readout. It is filed as cell-based, Human rhinovirus.
The subject of another data set is hRV-85. The data set can be described thus: Rhinovirus type 85 antiviral assay in Hela Rh cells, MTS readout. It counts as cell-based, Human rhinovirus.
Another data set concerns Hela H cells. To be noted: human.
A further data set deals with Vero cells. To be noted: African green monkey.
The next data set concerns Hela Rh cells. The data set can be described thus: Cytostatic/cytotoxic effect in Hela Rh cells (rhinovirus methodology, MTS).
[10] abbreviates: Human immunodeficiency virus 1, IIIB, MT4, 120 h.

Data on 5 compounds can be found in US9730944B2, “Antiviral activity of novel bicyclic heterocycles” (priority 2010, dated 2017).

≈ marks a conversion by molar mass, not a printed value. Where two headings read alike, the source gives them in different places. Some results are limits rather than exact numbers.

Sequence of purine nucleoside phosphorylase (P00491 whole entry, species assumed): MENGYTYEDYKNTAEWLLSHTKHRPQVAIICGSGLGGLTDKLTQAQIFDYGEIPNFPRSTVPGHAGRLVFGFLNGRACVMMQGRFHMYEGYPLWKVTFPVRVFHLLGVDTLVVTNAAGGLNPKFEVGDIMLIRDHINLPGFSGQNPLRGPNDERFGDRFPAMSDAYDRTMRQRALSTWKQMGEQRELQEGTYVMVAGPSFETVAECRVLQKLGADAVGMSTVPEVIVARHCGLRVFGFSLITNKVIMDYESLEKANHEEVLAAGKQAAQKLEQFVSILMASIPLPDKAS

Regarding `Nc1nc2sc(N)nc2c(=O)[nH]1` [2,5-Diaminothiazolo[5,4-d]pyrimidin-7(6H)-one], the “inhibitor of purine nucleoside phosphorylase” value in [1] is “weak inhibitor”.
Regarding `COCCCNc1nc(N)nc2sc(-c3ccc(F)cc3)nc12` [Example 32, 2-(4-fluorophenyl)-N-7-(3-methoxypropyl)thiazolo[5,4-d]pyrimidine-5,7-diamine], in the data set on MT-4 cells, the CC50 was over 365 µM. The EC50 in the data set on HIV-1 strain IIIB is over 349 µM.
As for `Nc1nc(N2CCN(C(=O)COc3ccc(Cl)cc3)CC2)c2nc(-c3ccc(F)cc3)sc2n1` [Example 45, 1-(4-(5-amino-2-(4-fluorophenyl)thiazolo[5,4-d]pyrimidin-7-yl)piperazin-1-yl)-2-(4-chlorophenoxy)ethanone], the EC50 is 0.011 µg/mL (≈ 0.022 µM) with hRV-29; 0.0718 µg/mL (≈ 0.144 µM) in the data set on hRV-70 (Human rhinovirus sp., HRV70, HeLa Rh, methodology of example 451, read-out: EC50 (μg/ml) hRV-70); 0.45 µM in the data set on HIV-2 strain (ROD); under 0.023 µg/mL in the data set on poliovirus (PV type 1) (HeLa); under 0.023 µg/mL in the data set on poliovirus (PV type 1) (Vero); 0.017 µg/mL (≈ 0.0341 µM) in the data set with hRV-15 (Human rhinovirus sp., HRV15, HeLa Rh, methodology of example 451, read-out: EC50 (μg/ml) hRV-15). For the same compound, the EC50 was 0.076 µg/mL (≈ 0.152 µM) in data set [2]; 0.0701 µg/mL (≈ 0.14 µM) in the data set with hRV-14 (Rhinovirus B, HRV14, HeLa Rh, methodology of example 451, read-out: EC50 (μg/ml) hRV-14); 0.0129 µg/mL (≈ 0.0259 µM) with hRV-41 (Human rhinovirus sp., HRV41, HeLa Rh, methodology of example 451, read-out: EC50 (μg/ml) hRV-41); 0.02 µg/mL (≈ 0.0401 µM) with hRV-59; 0.021 µg/mL (≈ 0.0421 µM) in the data set on hRV-89; 0.0095 µg/mL (≈ 0.019 µM) in the data set with hRV-2 (Rhinovirus A, HRV2, HeLa Rh, methodology of example 451, read-out: EC50 (μg/ml) hRV-2). Also, the EC50 in the data set on hRV-72 (Human rhinovirus sp., HRV72, HeLa Rh, methodology of example 451, read-out: EC50 (μg/ml) hRV-72) is 0.0736 µg/mL (≈ 0.148 µM); in the data set on hRV-39 (Human rhinovirus sp., HRV39, HeLa Rh, methodology of example 451, read-out: EC50 (μg/ml) hRV-39) it was 0.012 µg/mL (≈ 0.024 µM); with coxsackie virus (CVA9), 0.29 µg/mL (≈ 0.581 µM); in the data set with hRV-9 (Human rhinovirus sp., HRV9, HeLa Rh, methodology of example 451, read-out: EC50 (μg/ml) hRV-9) it was 0.0082 µg/mL (≈ 0.0164 µM); with poliovirus (PV type 3) (HeLa) it was under 0.023 µg/mL; in the data set with poliovirus (PV type 3) (Vero), under 0.023 µg/mL. For the same compound, the EC50 with enterovirus (EV71) was 0.0695 µg/mL (≈ 0.139 µM); in the data set on hRV-86 (Human rhinovirus sp., HRV86, HeLa Rh, methodology of example 451, read-out: EC50 (μg/ml) hRV-86), 0.047 µg/mL (≈ 0.0942 µM); with hRV-45 (Human rhinovirus sp., HRV45, HeLa Rh, methodology of example 451, read-out: EC50 (μg/ml) hRV-45) it was 0.198 µg/mL (≈ 0.397 µM); with poliovirus (PV type 2) (HeLa) it was under 0.023 µg/mL; in the data set on poliovirus (PV type 2) (Vero), under 0.023 µg/mL; with hRV-63 (Human rhinovirus sp., HRV63, HeLa Rh, methodology of example 451, read-out: EC50 (μg/ml) hRV-63) it was 0.018 µg/mL (≈ 0.0361 µM). Further, the EC50 in the data set with HIV-1 strain IIIB (setting [10]) came to 0.73 µM; in the data set on hRV-42 (Human rhinovirus sp., HRV42, HeLa Rh, methodology of example 451, read-out: EC50 (μg/ml) hRV-42), 0.0142 µg/mL (≈ 0.0285 µM); in the data set on hRV-85 (Human rhinovirus sp., HRV85, HeLa Rh, methodology of example 451, read-out: EC50 (μg/ml) hRV-85), 0.0295 µg/mL (≈ 0.0591 µM). The CC50 was 25.7 µg/mL (≈ 51.5 µM) in [3]; 28.7 µg/mL (≈ 57.5 µM) in the data set “in vitro [4]”; over 50 µg/mL in “in vitro [5]”; over 150 µg/mL in the data set “in vitro [6]”; 149 µM in “in vitro [7]”; 27.8 µg/mL (≈ 55.7 µM) in [8]. Further, the CC50 in data set [9] turned out to be 21.7 µg/mL (≈ 43.5 µM).
With `O=C(COc1ccc(Cl)cc1)N1CCN(c2ncnc3oc(-c4ccc(F)cc4)nc23)CC1` [Example 167, 2-(4-chlorophenoxy)-1-(4-(2-(4-fluorophenyl)oxazolo[5,4-d]pyrimidin-7-yl)piperazin-1-yl)ethanone], the EC50 was over 50 µM with HIV-2 strain (ROD); over 50 µg/mL in the data set with poliovirus (PV type 1) (HeLa); over 50 µg/mL in the data set with poliovirus (PV type 1) (Vero); over 50 µg/mL with poliovirus (PV type 3) (HeLa); over 50 µg/mL in the data set with poliovirus (PV type 3) (Vero); at least 50 µg/mL in the data set on poliovirus (PV type 2) (HeLa). Also, in the data set on HIV-1 strain IIIB (setting [10]), the EC50 is over 50 µM. Moreover, the “PV CC50” value with Hela H cells was determined as 31.91 µg/mL; with Vero cells it was 105.69 µg/mL. For the same compound, the CC50 in “in vitro [5]” is over 50 µg/mL; in the data set “in vitro [6]”, over 150 µg/mL; in “in vitro [7]”, over 50 µM.
For `Nc1nc(N2CCN(C(=O)COc3ccc(Br)cc3)CC2)c2sc(Cc3ccc(F)cc3)nc2n1` [Example 231, 1-(4-(5-amino-2-(4-fluorobenzyl)thiazolo[5,4-c]pyrimidin-7-yl)piperazin-1-yl)-2-(4-bromophenoxy)ethanone], the “hRV-70 EC50” value in the data set on hRV-70 (Hela Rh cells) was “=4.60 μg/ml”. The “hRV-15 EC50” value with hRV-15 (Hela Rh cells) was “=1.38 μg/ml”. Moreover, the “hRV-14 EC50” value with hRV-14 (Hela Rh cells) is listed as “=1.20 μg/ml”. In the data set on hRV-41 (Hela Rh cells), the “hRV-41 EC50” value is recorded as “=0.89 μg/ml”. In addition, the “hRV-2 EC50” value in the data set with hRV-2 (Hela Rh cells) is “=0.51 μg/ml”. The “hRV-72 EC50” value with hRV-72 (Hela Rh cells) is reported as “=4.95 μg/ml”. Also, in the data set with hRV-39 (Hela Rh cells), the “hRV-39 EC50” value is on record as “=0.34 μg/ml”. In addition, the “hRV-9 EC50” value in the data set with hRV-9 (Hela Rh cells) is listed as “=0.55 μg/ml”. Also, the “hRV-86 EC50” value in the data set on hRV-86 (Hela Rh cells) is recorded as “=4.42 μg/ml”. Further, in the data set with hRV-45 (Hela Rh cells), the “hRV-45 EC50” value is “=2.22 μg/ml”. In the data set on hRV-63 (Hela Rh cells), the “hRV-63 EC50” value is given as “=2.32 μg/ml”. Moreover, the CC50 in the data set with Hela Rh cells was over 50.00 µg/mL. For the same compound, the “hRV-42 EC50” value in the data set on hRV-42 (Hela Rh cells) is “=1.26 μg/ml”. Also, the “hRV-85 EC50” value with hRV-85 (Hela Rh cells) is “=2.21 μg/ml”.
